Assay results reported in PubChem BioAssay (NCI).
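Step 1: Grow cells in 96-well plates. Step 2: Expose to compound for 48 hours at 5 concentrations. Step 3: Interpolate endpoints linearly; if unreached, use highest concentration. The concentration for full growth arrest is given as TGI.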

Legend:
Experiment in all cases: NCI tumour cell line growth inhibition, 48 h
[1] = system: NCI-H460 lung
[2] = system: ACHN renal
[3] = system: MALME-3M melanoma
[4] = system: UACC-257 melanoma
[5] = system: SF-295 CNS
[6] = system: CAKI-1 renal
[7] = system: A498 renal
[8] = system: T-47D breast
[9] = system: NCI/ADR-RES ovarian
[10] = system: PC-3 prostate
[11] = system: SK-MEL-5 melanoma
[12] = system: MOLT-4 leukemia
[13] = system: SK-OV-3 ovarian

SMILES | TGI [1] | TGI [2] | TGI [3] | TGI [4] | TGI [5] | TGI [6] | TGI [7] | TGI [8] | TGI [9] | TGI [10] | TGI [11] | TGI [12] | TGI [13]
Clc1nc(Nc2nc3ccccc3[nH]2)nc(Cl)c1Cc1ccccc1 | > 100 µM | > 100 µM | > 100 µM | > 100 µM | > 100 µM | > 100 µM | > 100 µM | > 100 µM | > 100 µM | > 100 µM | > 100 µM | > 100 µM | > 100 µM
CCOC(=O)c1c(N2CCOCC2)[nH]c(=O)c(C(c2cccs2)c2c(O)c(C(=O)OCC)c(N3CCOCC3)[nH]c2=O)c1O | > 100 µM | > 100 µM | > 100 µM | > 100 µM | > 100 µM | > 100 µM | > 100 µM | > 100 µM | > 100 µM | > 100 µM | > 100 µM | > 100 µM | > 100 µM
Cc1ccc(SC[C@@]2(C(F)F)NC(=O)NC2=O)cc1 | > 100 µM | > 100 µM | > 100 µM | > 100 µM | > 100 µM | > 100 µM | > 100 µM | > 100 µM | > 100 µM | > 100 µM | > 100 µM | > 100 µM | > 100 µM
CC(NNC(=O)c1ccncc1)c1ccc(Cl)c(Cl)c1 (stereo unspecified) | > 100 µM | > 100 µM | > 100 µM | > 100 µM | > 100 µM | > 100 µM | > 100 µM | > 100 µM | > 100 µM | > 100 µM | > 100 µM | > 100 µM | > 100 µM
ONC1=Nc2ccccc2OCc2cc(Br)c(Br)cc2COc2ccccc2N=C1NO | 30.2 µM | > 43.3 µM | 42.1 µM | 56.6 µM | > 53.6 µM | 29.3 µM | 43.2 µM | 31.1 µM | > 53.7 µM | 31.3 µM | 30.4 µM | > 31.3 µM | > 53.1 µM
O=C(O)c1cc(Cl)cc2c1NC1(N2)C(=O)Nc2ccccc21 (stereo unspecified) | > 100 µM | > 100 µM | > 100 µM | > 100 µM | > 100 µM | > 100 µM | > 100 µM | > 100 µM | > 100 µM | > 100 µM | > 100 µM | > 100 µM | > 100 µM
COc1cc(/C=C2\Cc3cc(OC)c(OC)cc3C2=O)cc(OC)c1 | 74.7 µM | > 100 µM | > 100 µM | > 100 µM | 41.7 µM | > 100 µM | > 100 µM | > 100 µM | > 100 µM | > 100 µM | > 100 µM | > 100 µM | > 84.9 µM
CNC(=S)N/N=C(\C)c1nc2ncccc2[nH]1 | > 100 µM | > 100 µM | > 100 µM | > 100 µM | > 100 µM | 99.1 µM | > 100 µM | > 100 µM | 29.7 µM | > 100 µM | > 100 µM | > 100 µM | > 100 µM
O=C1CCC2(O)C3Cc4ccc(Oc5nnnn5-c5ccccc5)c5c4C2(CCN3CC2CC2)C1O5 (stereo unspecified) | > 100 µM | > 100 µM | 32.7 µM | 45.7 µM | > 100 µM | > 100 µM | 90.1 µM | > 100 µM | > 100 µM | > 100 µM | 25.9 µM | > 100 µM | > 100 µM
CC(C)(C)c1cc(C(=O)/C=C/c2ccn[nH]2)cc(C(C)(C)C)c1O | 8.6 µM | 3.03 µM | 20.2 µM | 11.2 µM | 28.1 µM | 6.98 µM | 6.25 µM | 3.32 µM | 16.1 µM | 5.18 µM | 20.1 µM | 10.1 µM | 31.7 µM
O=C(/C=C(\O)c1ccccc1)/C(=C/C(=O)c1ccccc1)NN=C(c1ccccc1)c1ccccc1 | 72.8 µM | > 100 µM | > 100 µM | 73.1 µM | > 100 µM | > 100 µM | > 100 µM | > 100 µM | 77.6 µM | > 100 µM | 43 µM | 52.5 µM | 92.5 µM
Cc1ccc(N=C2SC(c3ccc(C)cc3)(c3ccc(C)cc3)c3ccccc32)cc1 | > 100 µM | > 100 µM | > 100 µM | > 100 µM | > 100 µM | > 100 µM | > 100 µM | > 100 µM | > 100 µM | > 100 µM | > 100 µM | > 100 µM | > 100 µM
